Reference: the NIST ThermoML archive (doi:10.1016/j.fluid.2014.11.020)
Numbers after ± are expanded uncertainties.

Assay: activity coefficient (dimensionless); of the first substance listed, at infinite dilution; xn = mol fraction of the nth substance listed
Details: Liquid, Chromatography, x1 = 0

Structure (SMILES)	activity coefficient (323.15 K)	activity coefficient (333.15 K)	activity coefficient (343.15 K)
CCN(CC)CC [triethylamine] + CCCOC[n+]1ccn(C)c1.N#C[N-]C#N	10.3 ± 0.7	15.7 ± 1.1	24.8 ± 1.7
CCN(CC)CC [triethylamine] + CCCOC[n+]1ccn(Cc2ccccc2)c1.N#C[N-]C#N	9.22 ± 0.63		
CCN(CC)CC [triethylamine] + Cn1cc[n+](COCCCOC[n+]2ccn(C)c2)c1.N#C[N-]C#N.N#C[N-]C#N	54.6 ± 3.7	52.5 ± 3.6	50.5 ± 3.5
CCCCCCCCCCC [undecane] + CCCCCCCCn1cc[n+](COCCC)c1C.N#C[N-]C#N	20.6 ± 1.4	19.6 ± 1.3	18.2 ± 1.2
CCCCCCCCCCC [undecane] + CCCCCCCCn1cc[n+](COCCC)c1C.O=S(=O)([N-]S(=O)(=O)C(F)(F)F)C(F)(F)F	11.2 ± 0.76	10.5 ± 0.72	9.8 ± 0.67
CCCCCCCCCCC [undecane] + CCCCCCCCn1cc[n+](COCCCOC[n+]2ccn(CCCCCCCC)c2C)c1C.N#C[N-]C#N.N#C[N-]C#N	24.4 ± 1.7	23.4 ± 1.6	22.4 ± 1.5
CCCCCCCCCCC [undecane] + CCCCCCCCn1cc[n+](COCCCOC[n+]2ccn(CCCCCCCC)c2C)c1C.O=S(=O)([N-]S(=O)(=O)C(F)(F)F)C(F)(F)F.O=S(=O)([N-]S(=O)(=O)C(F)(F)F)C(F)(F)F	12.4 ± 0.85	11.1 ± 0.76	10.6 ± 0.72
CCCCCCCCCCC [undecane] + CCCOC[n+]1ccc(N(C)C)cc1.O=S(=O)([N-]S(=O)(=O)C(F)(F)F)C(F)(F)F	55.7 ± 3.8	52.9 ± 3.6	46.6 ± 3.2
CCCCCCCCCCC [undecane] + CCCOC[n+]1ccn(C)c1.F[B-](F)(F)F	911 ± 63	883 ± 61	780 ± 54
CCCCCCCCCCC [undecane] + CCCOC[n+]1ccn(C)c1.N#C[N-]C#N	556 ± 38	504 ± 35	432 ± 30
CCCCCCCCCCC [undecane] + CCCOC[n+]1ccn(C)c1.O=S(=O)([N-]S(=O)(=O)C(F)(F)F)C(F)(F)F	89.7 ± 6.2	85.9 ± 5.9	75.3 ± 5.2
CCCCCCCCCCC [undecane] + CCCOC[n+]1ccn(Cc2ccccc2)c1.F[B-](F)(F)F	352 ± 24	301 ± 21	286 ± 20
CCCCCCCCCCC [undecane] + CCCOC[n+]1ccn(Cc2ccccc2)c1.N#C[N-]C#N	208 ± 14	175 ± 12	140 ± 9.6
CCCCCCCCCCC [undecane] + CCCOC[n+]1ccn(Cc2ccccc2)c1.O=S(=O)([N-]S(=O)(=O)C(F)(F)F)C(F)(F)F	41.6 ± 2.9	31 ± 2.1	27.7 ± 1.9
CCCCCCCCCCC [undecane] + CN(C)c1cc[n+](COCCCOC[n+]2ccc(N(C)C)cc2)cc1.O=S(=O)([N-]S(=O)(=O)C(F)(F)F)C(F)(F)F.O=S(=O)([N-]S(=O)(=O)C(F)(F)F)C(F)(F)F	114 ± 7.8	99 ± 6.8	88.6 ± 6.1
CCCCCCCCCCC [undecane] + Cn1cc[n+](COCCCOC[n+]2ccn(C)c2)c1.N#C[N-]C#N.N#C[N-]C#N	938 ± 65	899 ± 62	797 ± 55
CCCCCCCCCCC [undecane] + Cn1cc[n+](COCCCOC[n+]2ccn(C)c2)c1.O=S(=O)([N-]S(=O)(=O)C(F)(F)F)C(F)(F)F.O=S(=O)([N-]S(=O)(=O)C(F)(F)F)C(F)(F)F	193 ± 13	191 ± 13	162 ± 11
CCCCCCCCCCC [undecane] + N#C[N-]C#N.N#C[N-]C#N.c1ccc(Cn2cc[n+](COCCCOC[n+]3ccn(Cc4ccccc4)c3)c2)cc1	554 ± 38	508 ± 35	457 ± 31
